Results on one substance are retold here after US11534457B2, “Use of dextran sulfate” (priority 2017, dated 2022).

Entries after “also recorded” stand apart in the source; their conditions may differ.

The subject of experiment [1] is Experimental Autoimmune Encephalomyelitis (EAE). The experiment can be described thus: Mouse Experimental Autoimmune Encephalomyelitis (EAE) model, clinical score. The note with it: 10 mg/kg s.c. three times weekly from day 0; day 13, 14, 16, 17, 19, 21 and 26. Type of experiment: in vivo, C57B1.6 mice.
The test system of experiment [2] is 3C system [HUVEC+(IL-1β, TNFα and IFNγ)]. The experiment can be described thus: BioMAP 3C system. Type of experiment: cell-based, Human. The text has this:
In this study LMW-DS was characterized by profiling in the BioMAP® Diversity PLUS panel. The BioMAP® panel consists of human primary cell-based systems designed to model different aspects of the human body in an in vitro format. The 12 systems in the BioMAP® Diversity PLUS panel (Table 32) allow test agent characterization in an unbiased way across a broad set of systems modeling various human disease states. The BioMA®P systems are constructed with one or more primary cell types from healthy human donors, with stimuli, such as cytokines or growth factors, added to capture relevant signaling networks that naturally occur in human tissue or pathological conditions. […]
Systems are derived from either single cell types or co-culture systems. […] Test agents prepared in either DMSO (small molecules; final concentration 0.1%) or PBS (biologics) are added at the indicated concentrations 1-hr before stimulation, and remain in culture for 24-hrs or as otherwise indicated (48-hrs, MyoF system; 72-hrs, BT system (soluble readouts); 168-hrs, BT system (secreted IgG)). […] Soluble factors from supernatants are quantified using either HTRF® detection, bead-based multiplex immunoassay or capture ELISA. Overt adverse effects of test agents on cell proliferation and viability (cytotoxicity) are detected by sulforhodamine B (SRB) staining, for adherent cells, and alamarBlue® reduction for cells in suspension. […]

In another experiment the test system is human motor neurons. The experiment can be described thus: PI staining (DNA content, cell cycle, cell numbers, apoptotic fraction), Acumen cytometry. Type of experiment: cell-based. As to conditions: 0.01 and 0.1 mg/ml. As to the method: The study aims were to evaluate the effect of LMW-DS on cell survival and expression of differentiation proteins in three cell types, cerebral cortical neurons, motor neurons and Schwann cells, using two concentrations 0.01 and 0.1 mg/ml of LMW-DS.
Neurons were cultured as 40,000 cells per well and Schwann cells 3,000 cells per. Cells were treated after 24 hours. The number of cells per well depended on the growth phenotype, proliferative capacity, etc.
NeuroBlast was pre-warmed to 37° C. Cells were thawed in a 37° C. water bath for no longer than 2 min. 1 ml of media was gently added drop-wise. Cells were resuspended and transferred to a 15 ml tube containing 9 ml of medium. Cells were centrifuged at 200 relative centrifugal force (RCF) for 5 min. Pellet was resuspended in 5 ml of medium and cells were counted with the Cellometer. 40,000 cells per well were seeded in previously coated 96-well plates. Cells were incubated at 37° C. with 5% CO2. Cells were allowed to settle for 24 hours before drug treatment. After 24 hours NeuroBlast medium was replaced with MotorBlast medium (Lonzo).
LMW-DS was prepared in the culture media of choice for each cell line and added to the respective wells in the doses 0.01 and 0.1 mg/ml. For cell survival assays cells were analyzed after 24 and 48 hours in eight identical wells/dose/time point. Differentiation and protein expression assay was analyzed after 48 hours, also in octuplicates.
Cells were fixated in the wells. Propidium iodine was used for viability assay. For immunohistochemical analysis, neurons were stained with βIII-tubulin, which is a tubulin specific for neurons. Schwann cells were stained for Myelin Basic Protein (MBP). For the negative controls PBST (0.1% Triton-X-100 in PBS) was applied instead of primary antibodies.
The Acumen cytometer allows the direct cytometric analysis of attached cells without prior detachment. […] The protein content of the cells can also be directly measured and expressed as either ‘total protein content’ or ‘mean protein content’.

Take “low molecular weight dextran sulfate [LMW-DS]”: the “mean EAE score vs vehicle control” value in experiment [1] was “significantly (#) lower mean score; also recorded: significantly lower mean score”. Further, the Increased biomarker activity entry in experiment [2] was “IL-8”. In addition, in the experiment on human motor neurons, the “cell loss in cultures” value was “major cell loss”, the “number of cells in the G2/M phase (PI content)” value is “appeared to increase the number of cells in the G2/M phase” and the “proliferation within a population of very small cells” value is listed as “small increase in proliferation”.
